Laboratory results from US20250361240A1, “PYRANOPYRIDINE COMPOUND, PROCESS FOR PREPARING THE SAME, PHARMACEUTICAL COMPOSITION AND USE THEREOF” (Zhejiang Yangli Pharmaceutical Technology Co., Ltd., priority 2024, published 2025).

Key:
[1] = target: human CYP11B1 (Homo sapiens (Human), UniProt P15538); assay: Inhibitory activity against hCYP11B1 in G-402 CYP11B1 high expression stable transformants (cortisol HTRF); type: cell-based; details: G-402 CYP11B1 cells, 0.2 μM 11-deoxycortisol, 16 hours; read-out: hCYP11B1 Abs IC50
Method: (§1) 1. Experimental System: G-402 CYP11B2 or CYP11B1 High Expression Stable Transformants
(§2) The above-mentioned high-expression stable transformants were constructed based on human […] cell line G-402. The artificial lentiviruses were introduced into human CYP11B2 (NM_000498.3) and CYP11B1 (NM_000497.4), respectively.
(§3) Maintenance medium: McCoy's 5A (modified, #16600082, GIBCO)+10% FBS (GIBCO)+1 μg/mL puromycin (A1113803, GIBCO).
(§4) Resuscitation and seeding medium: McCoy's 5A (modified, #16600082, GIBCO)+10% FBS (GIBCO).
(§5) Reaction medium: DMEM/F12 (#11320033, GIBCO)+2.5% activated charcoal filtered FBS (S11695, R & D).
(§6) Seeding: Cells were cultured to a suitable state after resuscitation with maintenance medium, and 96-well flat plates were seeded with seeding medium according to 1×10^4/100 μL/well (unified cell volume).
(§7) Changing solution: The supernatant was aspirated and discarded after seeding overnight (>12 hours) and adherence. 100-150 μL/well serum-free medium was added, and after being aspirated. After aspiration, 50 μL/well reaction medium was added for later use.
(§8) Formulation: Compound was diluted with reaction medium containing 0.4 μM substrate (final experimental concentration is 0.2 μM):
CYP11B1 substrate: 11-deoxycortisol (11-deoxycortisol, S4775, selleckchem). The final reaction concentration was 0.2 μM.
(§9) Loading: The above compound dilutions were added to the cell plates at 50 μL/well. The background and control wells were set.
(§10) Treating and sampling: The cell plates were incubated in a cell incubator for 16 hours after loading, and then each cell plate was centrifuged at 450 g for 2 min. 75 μL supernatant was transferred to a collection plate and frozen at −80° C. for future use (or direct detection).
(§11) Detection: Homogeneous time-resolved fluorescence kit (Cisbio HTRF kit, Cat.64ALDPEG, Cat.62CRTPEG) was used to determine the concentration of aldosterone or cortisol in the supernatant.
(§12) Analysis: The absolute IC50 (Abs IC50) for each compound was calculated using a four parameter fit.

[2] = target: human CYP11B2 (Homo sapiens (Human), UniProt P19099); assay: Inhibitory activity against hCYP11B2 in G-402 CYP11B2 high expression stable transformants (aldosterone HTRF); type: cell-based; details: for IC50: G-402 CYP11B2 cells, 0.2 μM 11-deoxycorticosterone, 16 hours, read-out: hCYP11B2 (AS) Abs IC50; for hCYP11B ½ Selectivity Fold: hCYP11B1 IC50 relative to hCYP11B2 IC50; for selectivity (in words): hCYP11B2 versus hCYP11B1, compared with reference Baxdrostat
Method: as §1, §2, §3, §4, §5, §6, §7, §8
CYP11B2 substrate: 11-deoxycorticosterone (11-deoxycorticosterone, S4243, selleckchem). The final reaction concentration was 0.2 μM
as §9, §10, §11, §12

[3] = system: aldosterone synthesis; assay: Pharmacodynamic test in cynomolgus monkeys with ACTH stimulation: aldosterone in plasma; type: in vivo, cynomolgus monkeys (Macaca fascicularis); details: 0.05 mg/kg oral
Source text: (§13) Adult cynomolgus monkeys (Macaca fascicularis) with suitable body weight and age were selected. 1 male and 1 female cynomolgus monkeys were used for experiment. The adaptation period was 1 week. On the day of the experiment, monkeys were individually housed in stainless steel mesh cages for testing.
(§14) Oral treatment and ACTH working solution (working solution diluted to the desired concentration in PBS sterile solution by ultrapure water filtration through a 0.22 μm filter using Tetracosactrin (HY-P0060, MCE)) were administered as follows: • T=0, 2 monkeys in each group were orally administered 0.5 mg/kg (compound was suspended in 5% aqueous sodium hydroxymethylcellulose solution as vehicle) in a fixed volume of 2 mL/kg; • T=+1 hour (i.e., 1 hour after administration), 14.5 μg/kg of the aforementioned ACTH working solution was injected intramuscularly.
(§15) Sampling test: Blood samples (collected in EDTA anticoagulant tubes) were collected before oral administration (Pre-dose) and 0.5 h, 1 h, 2 h, 4 h, 6 h and 12 h after administration for cortisol concentration measurement in plasma. The blood was centrifuged at 10000 rpm for 15 minutes at 4° C., followed by separation of the plasma and uniform storage at −80° C. for further analysis using an Roche biochemical analyzer to detect aldosterone and cortisol in plasma, and a portion of the plasma (0.5 h, 1 h, 2 h, 4 h, 6 h, and 12 h after administration, and an additional blood collection after 24 h) was taken simultaneously to determine the pharmacokinetic parameters by LC/MS.
(§16) The above experiment was repeated except that: T=0, two monkeys in each group were orally administered at a dose of 0.05 mg/kg (compound was suspended in 5% aqueous sodium hydroxymethylcellulose as vehicle) in a fixed volume of 2 mL/kg.

[4] = Pharmacokinetic test in cynomolgus monkeys (LC/MS); type: in vivo, cynomolgus monkeys (Macaca fascicularis); details: for Cmax / Tmax / half-life / AUC(0-t): both sexes, cynomolgus monkey, plasma, 0.05 mg/kg, 0.05mpk oral; for AUC(0-t): read-out: AUC0-24 h
Source text: as §13, §14, §15, §16

[5] = system: cortisol levels; assay: Pharmacodynamic test in cynomolgus monkeys with ACTH stimulation: cortisol in plasma; type: in vivo, cynomolgus monkeys (Macaca fascicularis); details: 0.05 mg/kg oral
Source text: as §13, §14, §15, §16

[6] = target: CYP2D6 (Homo sapiens (Human), UniProt P10635); assay: In vitro inhibitory activity against common CYP450 enzymes: CYP2D6; type: in vitro ADME; details: microsomes, substrate Dextromethorphan
Method: (§17) A working solution of the test compound was prepared in a solvent of dimethyl sulfoxide (DMSO) (starting at a final concentration of 50 μM, 3-fold dilution of 7 concentration points). The corresponding microsomes (CORNING, Cat No.452117) and the corresponding substrate solution were prepared (components were shown in Table 2). The working solution of the test compound and the corresponding microsomes were mixed with the corresponding substrate solution and the HLM working solution. The mixture was preheated in a 37.0° C. water bath for 10 min. NADPH cofactor (BONTAC, Cat No.BT04) was added. The resultant mixture was incubated for 10 min in a 37.0° C. water bath. The reaction was terminated by adding cold stop solution. [table] [table] The sample was centrifuged at 4000 rpm for 20 min to precipitate protein and the supernatant was transferred to HPLC water and shaken for 10 min.

[7] = target: CYP2C19 (Homo sapiens (Human), UniProt P33261); assay: In vitro inhibitory activity against common CYP450 enzymes: CYP2C19; type: in vitro ADME; details: microsomes, substrate (S)-(+)-Mephenytoin
Method: as §17

[8] = target: CYP2C9 (Homo sapiens (Human), UniProt P11712); assay: In vitro inhibitory activity against common CYP450 enzymes: CYP2C9; type: in vitro ADME; details: microsomes, substrate Diclofenac
Method: as §17

[9] = target: CYP1A2 (Homo sapiens (Human), UniProt P05177); assay: In vitro inhibitory activity against common CYP450 enzymes: CYP1A2; type: in vitro ADME; details: human, microsomes, 10 min
Method: as §17

[10] = target: CYP3A (Homo sapiens, UniProt P08684); assay: In vitro inhibitory activity against common CYP450 enzymes: CYP3A (midazolam); type: in vitro ADME; details: human, human liver microsomes, probe Midazolam, substrate Midazolam
Method: as §17

human CYP11B2, sequence (P19099 25-503): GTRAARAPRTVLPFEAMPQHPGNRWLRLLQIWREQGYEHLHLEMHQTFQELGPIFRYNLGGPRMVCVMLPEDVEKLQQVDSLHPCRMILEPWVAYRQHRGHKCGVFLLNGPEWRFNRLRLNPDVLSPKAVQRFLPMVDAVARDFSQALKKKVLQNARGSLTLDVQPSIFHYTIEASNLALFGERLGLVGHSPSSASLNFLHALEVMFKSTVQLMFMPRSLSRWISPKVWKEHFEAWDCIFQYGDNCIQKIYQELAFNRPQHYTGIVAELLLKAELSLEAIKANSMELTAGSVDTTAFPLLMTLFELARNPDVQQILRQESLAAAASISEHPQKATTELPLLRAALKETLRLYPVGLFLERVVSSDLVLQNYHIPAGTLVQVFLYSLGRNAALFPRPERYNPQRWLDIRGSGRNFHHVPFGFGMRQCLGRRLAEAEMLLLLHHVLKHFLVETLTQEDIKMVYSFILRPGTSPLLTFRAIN
human CYP11B1, sequence (P15538 25-503): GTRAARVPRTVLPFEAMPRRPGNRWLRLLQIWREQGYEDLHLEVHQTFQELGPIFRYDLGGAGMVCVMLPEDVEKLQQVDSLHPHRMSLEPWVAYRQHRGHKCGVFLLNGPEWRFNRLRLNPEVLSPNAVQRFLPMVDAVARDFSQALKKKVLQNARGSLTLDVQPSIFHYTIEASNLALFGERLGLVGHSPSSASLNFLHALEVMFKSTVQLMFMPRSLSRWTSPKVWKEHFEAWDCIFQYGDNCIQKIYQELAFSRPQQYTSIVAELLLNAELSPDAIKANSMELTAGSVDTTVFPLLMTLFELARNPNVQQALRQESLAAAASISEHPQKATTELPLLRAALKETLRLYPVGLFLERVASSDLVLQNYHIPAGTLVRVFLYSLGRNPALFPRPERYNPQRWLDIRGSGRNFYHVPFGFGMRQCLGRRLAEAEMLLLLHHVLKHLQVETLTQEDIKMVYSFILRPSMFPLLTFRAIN
CYP1A2, sequence (P05177 whole entry): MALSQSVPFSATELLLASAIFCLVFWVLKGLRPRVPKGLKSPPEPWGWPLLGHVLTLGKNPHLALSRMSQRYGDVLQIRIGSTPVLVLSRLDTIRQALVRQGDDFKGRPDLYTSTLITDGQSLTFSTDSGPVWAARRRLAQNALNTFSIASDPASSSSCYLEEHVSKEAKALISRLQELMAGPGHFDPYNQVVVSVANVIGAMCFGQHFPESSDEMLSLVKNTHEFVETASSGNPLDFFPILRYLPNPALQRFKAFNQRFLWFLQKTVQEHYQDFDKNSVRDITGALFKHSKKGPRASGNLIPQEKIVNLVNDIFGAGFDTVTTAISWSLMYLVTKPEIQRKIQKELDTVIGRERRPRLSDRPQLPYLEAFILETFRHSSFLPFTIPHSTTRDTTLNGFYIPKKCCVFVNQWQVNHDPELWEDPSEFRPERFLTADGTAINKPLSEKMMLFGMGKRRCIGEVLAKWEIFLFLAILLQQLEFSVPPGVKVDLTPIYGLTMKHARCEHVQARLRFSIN
CYP3A, sequence (P08684 2-503 limits assumed): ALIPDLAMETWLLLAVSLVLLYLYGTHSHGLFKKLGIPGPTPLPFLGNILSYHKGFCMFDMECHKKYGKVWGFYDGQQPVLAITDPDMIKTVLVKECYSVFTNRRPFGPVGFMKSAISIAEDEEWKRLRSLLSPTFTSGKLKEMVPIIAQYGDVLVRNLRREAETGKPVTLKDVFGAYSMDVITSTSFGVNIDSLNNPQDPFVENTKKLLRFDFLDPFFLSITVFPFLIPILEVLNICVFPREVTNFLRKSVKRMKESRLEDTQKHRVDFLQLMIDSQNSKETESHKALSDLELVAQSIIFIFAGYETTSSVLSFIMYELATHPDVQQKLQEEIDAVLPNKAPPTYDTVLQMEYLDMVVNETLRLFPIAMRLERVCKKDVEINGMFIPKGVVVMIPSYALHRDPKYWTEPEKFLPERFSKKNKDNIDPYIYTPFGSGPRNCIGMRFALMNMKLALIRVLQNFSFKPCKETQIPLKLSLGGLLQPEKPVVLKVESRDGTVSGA
CYP2C9, sequence (P11712 whole entry): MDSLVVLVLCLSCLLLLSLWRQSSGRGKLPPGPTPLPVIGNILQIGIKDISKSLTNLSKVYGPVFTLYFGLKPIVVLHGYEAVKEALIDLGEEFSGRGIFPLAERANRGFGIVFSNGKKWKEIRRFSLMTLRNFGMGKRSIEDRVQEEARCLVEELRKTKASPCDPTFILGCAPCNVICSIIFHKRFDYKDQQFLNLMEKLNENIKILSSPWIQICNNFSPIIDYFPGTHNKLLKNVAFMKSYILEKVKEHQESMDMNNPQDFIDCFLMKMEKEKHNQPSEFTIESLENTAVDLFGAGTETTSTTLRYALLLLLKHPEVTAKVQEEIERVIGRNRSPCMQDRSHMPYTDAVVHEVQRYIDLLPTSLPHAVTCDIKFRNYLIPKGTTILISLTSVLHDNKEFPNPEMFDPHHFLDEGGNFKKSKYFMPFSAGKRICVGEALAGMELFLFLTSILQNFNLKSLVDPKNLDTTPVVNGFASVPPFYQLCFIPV
CYP2D6, sequence (P10635 whole entry): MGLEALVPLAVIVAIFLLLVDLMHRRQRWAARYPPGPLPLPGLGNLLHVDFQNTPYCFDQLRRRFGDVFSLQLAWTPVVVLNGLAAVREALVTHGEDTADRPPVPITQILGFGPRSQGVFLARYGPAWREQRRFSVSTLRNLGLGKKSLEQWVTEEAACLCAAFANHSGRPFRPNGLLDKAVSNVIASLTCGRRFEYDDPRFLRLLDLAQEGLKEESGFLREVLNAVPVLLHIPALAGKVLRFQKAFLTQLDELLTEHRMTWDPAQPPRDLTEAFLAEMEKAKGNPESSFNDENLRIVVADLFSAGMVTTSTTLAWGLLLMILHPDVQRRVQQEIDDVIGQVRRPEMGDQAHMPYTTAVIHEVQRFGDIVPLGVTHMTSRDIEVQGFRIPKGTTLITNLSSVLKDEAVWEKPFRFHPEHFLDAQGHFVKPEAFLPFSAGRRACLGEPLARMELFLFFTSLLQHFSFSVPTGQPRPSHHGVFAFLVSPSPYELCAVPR
CYP2C19, sequence (P33261 whole entry): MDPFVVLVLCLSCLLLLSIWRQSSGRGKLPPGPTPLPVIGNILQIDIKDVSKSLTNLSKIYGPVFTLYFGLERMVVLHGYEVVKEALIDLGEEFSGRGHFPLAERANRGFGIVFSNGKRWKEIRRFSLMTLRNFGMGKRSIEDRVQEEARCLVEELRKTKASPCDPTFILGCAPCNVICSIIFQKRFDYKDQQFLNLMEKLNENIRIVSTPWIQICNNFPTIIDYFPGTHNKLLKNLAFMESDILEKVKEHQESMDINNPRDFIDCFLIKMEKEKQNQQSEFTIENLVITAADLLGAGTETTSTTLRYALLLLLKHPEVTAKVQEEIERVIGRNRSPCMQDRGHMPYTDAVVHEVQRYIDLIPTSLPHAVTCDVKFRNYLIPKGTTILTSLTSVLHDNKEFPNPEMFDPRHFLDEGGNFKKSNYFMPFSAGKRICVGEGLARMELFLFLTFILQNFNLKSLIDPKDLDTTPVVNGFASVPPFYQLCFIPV

## [2H][C@@]1(NC(=O)N(C)C)CCOc2c(-c3ccc4c(c3)CCC(=O)N4C)cncc21 [Example 5, (R)-1,1-dimethyl-3-(8-(1-methyl-2-oxo-1,2,3,4-tetrahydroquinolin-6-yl)-3,4-dihydro-2H-pyran[3,2-c]pyridin-4-yl-4-d)urea]
[1]
  IC50: 3.38 µM
[2]
  IC50: 0.0496 µM
  hCYP11B ½ Selectivity Fold: 68.19 Fold

## [2H][C@@]1(NC(=O)CC)CCOc2c(-c3ccc4c(c3)CCC(=O)N4C)cncc21 [Example 2, (R)-N-(8-(1-methyl-2-oxo-1,2,3,4-tetrahydroquinolin-6-yl)-3,4-dihydro-2H-pyran[3,2-c]pyridin-4-yl-4-D)propanamide]
[1]
  IC50: 5.36 µM
[2]
  IC50: 0.0371 µM
  hCYP11B ½ Selectivity Fold: 144.47 Fold
  selectivity (in words): better selectivity
[3]
  effect on aldosterone synthesis (in words): no potent inhibition of aldosterone synthesis
[3]; 0.5 h
  Aldosterone Concentration in Plasma: 1057.1 pg/mL
[3]; 1 h (ACTH at +1 hour)
  Aldosterone Concentration in Plasma: 807.59 pg/mL
[3]; 2 h
  Aldosterone Concentration in Plasma: 337.76 pg/mL
[3]; 4 h
  Aldosterone Concentration in Plasma: 105.97 pg/mL
[3]; 6 h
  Aldosterone Concentration in Plasma: 101.15 pg/mL
[3]; 12 h
  Aldosterone Concentration in Plasma: 112.02 pg/mL
[3]; Pre-dose
  Aldosterone Concentration in Plasma: 432.52 pg/mL
[4]
  Cmax: 11.9 ng/mL
  Tmax: 2 h
  half-life: 9.7 h
  AUC(0-t): 165 ng·h/mL
[5]; 0.5 h
  Cortisol Concentration in Plasma: 1299.9 pg/mL
[5]; 1 h (ACTH at +1 hour)
  Cortisol Concentration in Plasma: 1178.3 pg/mL
[5]; 2 h
  Cortisol Concentration in Plasma: 1809.0 pg/mL
[5]; 4 h
  Cortisol Concentration in Plasma: 872.2 pg/mL
[5]; 6 h
  Cortisol Concentration in Plasma: 451.8 pg/mL
[5]; 12 h
  Cortisol Concentration in Plasma: 710.2 pg/mL
[5]; Pre-dose
  Cortisol Concentration in Plasma: 838.9 pg/mL

## CCC(=O)N[C@@H]1CCOc2c(-c3cc4c(cc3F)N(C)C(=O)CC4)cncc21 [Example 8, (R)-N-(8-(7-Fluoro-1-methyl-2-oxo-1,2,3,4-tetrahydroquinolin-6-yl)-3,4-dihydro-2H-pyran[3,2-c]pyridin-4-yl)propanamide]
[6]
  IC50: > 50 µM
[7]
  IC50: > 50 µM
[1]
  IC50: 4.6 µM
[2]
  IC50: 0.0231 µM
  hCYP11B ½ Selectivity Fold: 199 Fold
  selectivity (in words): better selectivity
[3]
  effect on aldosterone synthesis (in words): significantly inhibited aldosterone synthesis
[3]; 0.5 h
  Aldosterone Concentration in Plasma: 557.64 pg/mL
[3]; 1 h (ACTH at +1 hour)
  Aldosterone Concentration in Plasma: 350.13 pg/mL
[3]; 2 h
  Aldosterone Concentration in Plasma: 139.86 pg/mL
[3]; 4 h
  Aldosterone Concentration in Plasma: 81.71 pg/mL
[3]; 6 h
  Aldosterone Concentration in Plasma: 84.08 pg/mL
[3]; 12 h
  Aldosterone Concentration in Plasma: 91.38 pg/mL
[3]; Pre-dose
  Aldosterone Concentration in Plasma: 421.96 pg/mL
[4]
  Cmax: 22.7 ng/mL
  Tmax: 2 h
  half-life: 12.7 h
  AUC(0-t): 332 ng·h/mL
[4]; same dose
  Cmax and AUC relative to the reference Baxdrostat: three times as high
[4]; same dose (0.05mpk)
  Cmax and AUC values relative to the compound of Example 2: twice as high
[5]; 0.5 h
  Cortisol Concentration in Plasma: 1590.4 pg/mL
[5]; 1 h (ACTH at +1 hour)
  Cortisol Concentration in Plasma: 1335.6 pg/mL
[5]; 2 h
  Cortisol Concentration in Plasma: 1990.5 pg/mL
[5]; 4 h
  Cortisol Concentration in Plasma: 818.4 pg/mL
[5]; 6 h
  Cortisol Concentration in Plasma: 410.8 pg/mL
[5]; 12 h
  Cortisol Concentration in Plasma: 487.5 pg/mL
[5]; Pre-dose
  Cortisol Concentration in Plasma: 831.6 pg/mL
[8]
  IC50: > 50 µM
[9]
  IC50: > 50 µM
[10]
  IC50 at 10 min: > 50 µM

## [2H][C@@]1(NC(=O)CC)CCOc2c(-c3cc4c(cc3F)N(C)C(=O)CC4)cncc21 [Example 4, (R)-N-(8-(7-fluoro-1-methyl-2-oxo-1,2,3,4-tetrahydroquinolin-6-yl)-3,4-dihydro-2H-pyran[3,2-c]pyridin-4-yl-4-d)propanamide]
[1]
  IC50: 4.8 µM
[2]
  IC50: 0.0427 µM
  hCYP11B ½ Selectivity Fold: 112.51 Fold

## CN(C)C(=O)N[C@@H]1CCOc2c(-c3ccc4c(c3)CCC(=O)N4C)cncc21 [Example 3, (R)-1,1-dimethyl-3-(8-(1-methyl-2-oxo-1,2,3,4-tetrahydroquinolin-6-yl)-3,4-dihydro-2H-pyran[3,2-c]pyridin-4-yl)urea]
[1]
  IC50: 5.25 µM
[2]
  IC50: 0.0611 µM
  hCYP11B ½ Selectivity Fold: 85.95 Fold

## [2H][C@@]1(NC(=O)N(C)C)CCOc2c(-c3cc4c(cc3F)N(C)C(=O)CC4)cncc21 [Example 7, (R)-3-(8-(7-Fluoro-1-methyl-2-oxo-1,2,3,4-tetrahydroquinolin-6-yl)-3,4-dihydro-2H-pyran[3,2-c]pyridin-4-yl-4-d)-1,1-dimethylurea]
[1]
  IC50: > 10 µM
[2]
  IC50: 0.172 µM
  hCYP11B ½ Selectivity Fold: >58 Fold

## CN(C)C(=O)N[C@@H]1CCOc2c(-c3cc4c(cc3F)N(C)C(=O)CC4)cncc21 [Example 6, (R)-3-(8-(7-fluoro-1-methyl-2-oxo-1,2,3,4-tetrahydroquinolin-6-yl)-3,4-dihydro-2H-pyran[3,2-c]pyridin-4-yl)-1,1-dimethylurea]
[1]
  IC50: > 10 µM
[2]
  IC50: 0.0773 µM
  hCYP11B ½ Selectivity Fold: >129.37 Fold
  selectivity (in words): better selectivity
